One assay deals with T1, TrkA (Homo sapiens, UniProt P04629).
T1 construct: purchased Upstate Biotech 14-571
Nature of the assay: TrkA biochemical assay (AlphaScreen). As to conditions: under the test conditions employed; read-out: IC50 toward kinase TrkA. On the procedure: Compounds tested were dissolved in DMSO (1 μL) and added to a white 384-well plate (Costar #3705). […] Each sample was at 5% DMSO. The plate was then incubated for 40 minutes at room temperature.

The next assay deals with T2, Fms (Homo sapiens, UniProt P07333).
T2 construct: purchased Upstate Biotech 14-551
T2 sequence (P07333 20-972): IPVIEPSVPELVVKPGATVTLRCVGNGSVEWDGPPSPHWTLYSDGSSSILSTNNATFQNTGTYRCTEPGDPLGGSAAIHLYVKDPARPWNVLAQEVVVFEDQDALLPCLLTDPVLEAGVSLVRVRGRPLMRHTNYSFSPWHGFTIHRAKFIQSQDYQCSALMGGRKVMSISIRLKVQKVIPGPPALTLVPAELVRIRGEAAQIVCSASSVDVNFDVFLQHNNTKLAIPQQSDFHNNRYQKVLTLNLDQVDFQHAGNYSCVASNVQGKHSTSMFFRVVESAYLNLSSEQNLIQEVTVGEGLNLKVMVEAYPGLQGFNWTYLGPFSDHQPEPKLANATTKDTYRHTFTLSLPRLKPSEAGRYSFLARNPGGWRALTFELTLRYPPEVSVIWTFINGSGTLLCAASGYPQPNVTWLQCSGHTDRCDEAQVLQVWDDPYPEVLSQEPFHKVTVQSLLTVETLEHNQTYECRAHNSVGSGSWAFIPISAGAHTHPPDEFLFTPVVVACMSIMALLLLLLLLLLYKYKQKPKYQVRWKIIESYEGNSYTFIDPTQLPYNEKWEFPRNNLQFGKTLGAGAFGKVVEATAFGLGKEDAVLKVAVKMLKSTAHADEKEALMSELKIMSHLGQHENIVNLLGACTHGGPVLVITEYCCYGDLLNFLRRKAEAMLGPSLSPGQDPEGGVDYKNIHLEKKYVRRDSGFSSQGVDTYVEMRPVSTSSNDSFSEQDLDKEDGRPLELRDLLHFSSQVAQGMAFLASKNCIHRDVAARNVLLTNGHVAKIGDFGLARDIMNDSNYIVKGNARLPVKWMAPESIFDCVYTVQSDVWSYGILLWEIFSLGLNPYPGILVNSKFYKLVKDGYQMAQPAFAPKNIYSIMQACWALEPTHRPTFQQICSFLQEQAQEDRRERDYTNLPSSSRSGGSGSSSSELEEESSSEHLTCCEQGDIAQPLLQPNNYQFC
In words: Fms biochemical assay (AlphaScreen or 33P-ATP). As to conditions: under the test conditions employed; read-out: IC50 toward kinase Fms. From the text: Each sample was at 5% DMSO.

The next assay addresses HGK (Homo sapiens, UniProt O95819). Nature of the assay: HGK (MAP4K4) biochemical assay (AlphaScreen). As to conditions: under the test conditions employed; read-out: IC50 toward kinase HGK. On the procedure: Substrate was 10 nM biotin-ERM (T567/T564/T558, Cell Signaling, Inc., cat#1344). MAP4K4 kinase was at 0.5 ng per sample. After incubation of the kinase reaction for 40 min at room temperature, 5 μl of donor beads and protein A acceptor beads (Perkin Elmer Life Science, cat#67606017) at final concentration 1 μg/ml in stop buffer (20 mM Tris, pH 7.4, 200 mM Nacl, 100 mM EDTA, 0.03% BSA) was added, along with Phospho-ERM Antibody (T567/T564/T558, Cell Signaling, Inc., cat#3141) at 1:1000 dilution. […] Phosphorylated substrate results in binding of the antibody which binds to protein A acceptor bead and association of the donor and acceptor beads is such that the signal correlates with kinase activity.

The target in a further assay is T3, Kit (Homo sapiens, UniProt P10721).
T3 construct: P1332.N6 BI PTP KIT M552-K948-X COD; made in house; host or cells: E. coli BL21(DE3)RIL, co-expressed with PTP1B
T3 sequence (P10721 552-948): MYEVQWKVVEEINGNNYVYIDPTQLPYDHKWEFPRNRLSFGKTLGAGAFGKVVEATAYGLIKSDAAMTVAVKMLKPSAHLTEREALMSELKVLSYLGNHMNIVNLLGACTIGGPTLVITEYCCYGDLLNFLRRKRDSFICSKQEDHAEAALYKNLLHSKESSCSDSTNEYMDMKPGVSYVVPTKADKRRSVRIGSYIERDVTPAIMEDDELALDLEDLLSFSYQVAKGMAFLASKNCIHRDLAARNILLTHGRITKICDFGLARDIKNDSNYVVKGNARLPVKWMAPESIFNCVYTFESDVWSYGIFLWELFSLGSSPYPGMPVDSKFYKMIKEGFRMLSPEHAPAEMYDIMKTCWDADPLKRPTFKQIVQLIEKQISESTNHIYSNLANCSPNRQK
In words: c-kit biochemical assay (AlphaScreen or 33P-ATP). As to conditions: under the test conditions employed; read-out: IC50 toward kinase Kit. On the procedure: C-kit kinase was at 1 ng per sample.
The c-kit enzyme used in the above assay was either obtained from Cell Signaling Technology (Cat. #7754) or was prepared as follows: A plasmid encoding kit (DNA and encoded protein sequences shown below) was engineered using common polymerase chain reaction (PCR) methods. Complementary DNA cloned from various human tissues were purchased from Invitrogen, and these were used as substrates in the PCR reactions. Specific custom synthetic oligonucleotide primers were designed to initiate the PCR product, and also to provide the appropriate restriction enzyme cleavage sites for ligation with the plasmids. The entire sequence encoding the enzyme was made through a gene synthesis procedure, using custom synthetic oligonucleotides covering the entire coding sequence (Invitrogen, see below).

HGK, sequence (O95819 whole entry): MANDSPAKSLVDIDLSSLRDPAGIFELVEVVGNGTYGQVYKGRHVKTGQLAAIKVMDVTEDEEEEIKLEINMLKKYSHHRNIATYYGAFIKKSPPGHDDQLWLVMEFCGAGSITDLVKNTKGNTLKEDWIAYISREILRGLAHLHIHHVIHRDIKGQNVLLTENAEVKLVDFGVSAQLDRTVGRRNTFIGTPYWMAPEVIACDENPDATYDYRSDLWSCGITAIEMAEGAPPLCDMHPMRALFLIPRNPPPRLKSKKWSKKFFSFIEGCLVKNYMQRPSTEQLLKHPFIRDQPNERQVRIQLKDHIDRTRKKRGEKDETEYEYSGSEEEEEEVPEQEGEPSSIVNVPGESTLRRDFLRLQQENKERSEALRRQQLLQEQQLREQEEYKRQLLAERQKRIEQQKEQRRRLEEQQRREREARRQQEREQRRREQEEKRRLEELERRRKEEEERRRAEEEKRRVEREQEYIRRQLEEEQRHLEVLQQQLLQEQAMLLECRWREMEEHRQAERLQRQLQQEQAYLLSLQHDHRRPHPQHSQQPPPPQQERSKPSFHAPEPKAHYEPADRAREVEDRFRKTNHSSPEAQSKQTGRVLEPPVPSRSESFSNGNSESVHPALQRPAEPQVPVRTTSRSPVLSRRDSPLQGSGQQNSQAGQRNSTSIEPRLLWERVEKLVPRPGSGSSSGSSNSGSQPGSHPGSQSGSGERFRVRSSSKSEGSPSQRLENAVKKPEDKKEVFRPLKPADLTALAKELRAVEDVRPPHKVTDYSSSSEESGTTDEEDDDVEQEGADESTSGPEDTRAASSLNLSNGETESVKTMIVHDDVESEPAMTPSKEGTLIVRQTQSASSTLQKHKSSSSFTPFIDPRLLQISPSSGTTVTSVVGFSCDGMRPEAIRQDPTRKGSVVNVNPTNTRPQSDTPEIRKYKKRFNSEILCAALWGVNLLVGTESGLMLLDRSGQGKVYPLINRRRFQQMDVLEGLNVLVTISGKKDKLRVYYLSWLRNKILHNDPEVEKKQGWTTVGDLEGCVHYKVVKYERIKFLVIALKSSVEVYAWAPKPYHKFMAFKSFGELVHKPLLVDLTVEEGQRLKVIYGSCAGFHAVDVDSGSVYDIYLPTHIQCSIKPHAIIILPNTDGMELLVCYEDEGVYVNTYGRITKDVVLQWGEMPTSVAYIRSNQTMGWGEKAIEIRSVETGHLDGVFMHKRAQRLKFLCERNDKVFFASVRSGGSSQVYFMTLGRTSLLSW
T1 sequence (P04629 33-796): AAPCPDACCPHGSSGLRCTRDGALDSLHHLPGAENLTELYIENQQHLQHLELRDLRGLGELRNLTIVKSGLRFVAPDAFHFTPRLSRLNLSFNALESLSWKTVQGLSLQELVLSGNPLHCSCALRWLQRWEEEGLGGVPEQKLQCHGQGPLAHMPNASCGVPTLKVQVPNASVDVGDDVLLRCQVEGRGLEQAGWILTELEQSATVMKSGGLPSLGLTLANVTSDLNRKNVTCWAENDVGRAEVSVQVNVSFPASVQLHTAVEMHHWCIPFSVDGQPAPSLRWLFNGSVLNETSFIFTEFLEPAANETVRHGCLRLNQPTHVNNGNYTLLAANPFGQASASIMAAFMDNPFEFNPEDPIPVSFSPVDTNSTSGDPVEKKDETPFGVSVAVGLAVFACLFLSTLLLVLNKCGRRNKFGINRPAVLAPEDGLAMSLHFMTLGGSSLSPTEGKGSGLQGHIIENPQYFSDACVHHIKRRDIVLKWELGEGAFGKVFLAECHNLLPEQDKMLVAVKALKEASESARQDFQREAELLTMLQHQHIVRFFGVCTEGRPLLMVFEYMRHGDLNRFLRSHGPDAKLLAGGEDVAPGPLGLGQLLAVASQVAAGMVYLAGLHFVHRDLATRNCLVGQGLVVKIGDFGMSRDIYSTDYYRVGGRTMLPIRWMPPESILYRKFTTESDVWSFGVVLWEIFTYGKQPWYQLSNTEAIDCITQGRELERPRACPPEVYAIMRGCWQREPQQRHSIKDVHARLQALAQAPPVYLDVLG

As for `COc1cc(Cc2c[nH]c3ncccc23)c(F)cc1OCc1ccc(Cl)cc1` [P-1844, 3-[4-(4-Chloro-benzyloxy)-2-fluoro-5-methoxy-benzyl]-1H-pyrrolo[2,3-b]pyridine], the IC50 on TrkA is ≤ 10 µM.
As to `COc1cnc2[nH]cc(Cc3cc(OC)c(OCc4ccc(Cl)cc4F)cc3F)c2c1` [P-1885, 3-[4-(4-Chloro-2-fluoro-benzyloxy)-2-fluoro-5-methoxy-benzyl]-5-methoxy-1H-pyrrolo[2,3-b]pyridine], the IC50 on TrkA is ≤ 10 µM.
With `COc1cc(Cc2c[nH]c3ncc(Cl)cc23)c(F)cc1OCc1nc2ccccc2[nH]1` [P-1976, 2-[4-(5-Chloro-1H-pyrrolo[2,3-b]pyridin-3-ylmethyl)-5-fluoro-2-methoxy-phenoxymethyl]-1H-benzoimidazole], the IC50 on TrkA was ≤ 10 µM.
Consider `COc1cc(Cc2c[nH]c3ncccc23)c(F)cc1OCc1nc2ccccc2[nH]1` [P-1978, 2-[5-Fluoro-2-methoxy-4-(1H-pyrrolo[2,3-b]pyridin-3-ylmethyl)-phenoxymethyl]-1H-benzoimidazole], for which the IC50 on TrkA is ≤ 10 µM.
For the compound `COc1cc(Cc2c[nH]c3ncccc23)c(F)cc1OCc1cccnc1` [P-2038, 3-[2-Fluoro-5-methoxy-4-(pyridin-3-ylmethoxy)-benzyl]-1H-pyrrolo[2,3-b]pyridine], at TrkA, the IC50 is ≤ 10 µM.
As for `Fc1cc(Cc2c[nH]c3ncc(Cl)cc23)c(Cl)cc1OCc1nc2ccccc2[nH]1` [P-2099, 2-[5-Chloro-4-(5-chloro-1H-pyrrolo[2,3-b]pyridin-3-ylmethyl)-2-fluoro-phenoxymethyl]-1H-benzoimidazole], the IC50 at Fms, on TrkA and at HGK was ≤ 10 µM in each case.
As for `Fc1cc(OCc2nc3ccccc3[nH]2)cc(F)c1Cc1c[nH]c2ncccc12` [P-2102, 2-[3,5-Difluoro-4-(1H-pyrrolo[2,3-b]pyridin-3-ylmethyl)-phenoxymethyl]-1H-benzoimidazole], the IC50 at Fms and on HGK was ≤ 10 µM each time.
`COc1cc(Cc2c[nH]c3ncccc23)c(Cl)cc1OCc1nc2ccccc2[nH]1` [P-2103, 2-[5-Chloro-2-methoxy-4-(1H-pyrrolo[2,3-b]pyridin-3-ylmethyl)-phenoxymethyl]-1H-benzoimidazole]: the IC50 on Fms, on TrkA and on HGK was ≤ 10 µM in each case.
In the case of `COc1cc(Cc2c[nH]c3ncc(Cl)cc23)c(Cl)cc1OCc1nc2ccccc2[nH]1` [P-2104, 2-[5-Chloro-4-(5-chloro-1H-pyrrolo[2,3-b]pyridin-3-ylmethyl)-2-methoxy-phenoxymethyl]-1H-benzoimidazole], the IC50 on Fms, at TrkA and at HGK was ≤ 10 µM each time.
For the compound `COc1ccc2[nH]c(COc3cc(F)c(Cc4c[nH]c5ncccc45)cc3OC)nc2c1` [P-2113, 2-[5-Fluoro-2-methoxy-4-(1H-pyrrolo[2,3-b]pyridin-3-ylmethyl)-phenoxymethyl]-6-methoxy-1H-benzoimidazole], the 50% inhibitory concentration (IC50) at Fms and at HGK was ≤ 10 µM throughout.
With `COc1cc(Cc2c[nH]c3ncc(F)cc23)c(F)cc1OCc1nc2ccccc2[nH]1` [P-2115, 2-[5-Fluoro-4-(5-fluoro-1H-pyrrolo[2,3-b]pyridin-3-ylmethyl)-2-methoxy-phenoxymethyl]-1H-benzoimidazole], the IC50 at Fms, at TrkA and on HGK was ≤ 10 µM throughout.
`COc1cnc2[nH]cc(Cc3cc(Cl)c(OCc4nc5ccccc5[nH]4)cc3F)c2c1` [P-2116, 2-[2-Chloro-5-fluoro-4-(5-methoxy-1H-pyrrolo[2,3-b]pyridin-3-ylmethyl)-phenoxymethyl]-1H-benzoimidazole]: the IC50 on Fms, on TrkA and at HGK was ≤ 10 µM in each case.
With `O=C(c1cccc(OCc2ccc(Cl)cc2F)c1OCC1CC1)c1c[nH]c2ncccc12` [P-2120], the concentration for half-maximal inhibition (IC50) at Fms and on Kit was ≤ 10 µM each time.
`CCOc1c(OCc2ccc(Cl)cc2Cl)cccc1C(=O)c1c[nH]c2ncccc12` [P-2130, [3-(2,4-Dichloro-benzyloxy)-2-ethoxy-phenyl]-(1-pyrrolo[2,3-b]pyridin-3-yl)-methanone]: the IC50 on Fms and at Kit was ≤ 10 µM in each case.
In the case of `CCOc1c(OCc2cc(C)n(C)n2)cccc1C(=O)c1c[nH]c2ncccc12` [P-2134, [3-(1,5-Dimethyl-1H-pyrazol-3-ylmethoxy)-2-ethoxy-phenyl]-(1H-pyrrolo[2,3-b]pyridin-3-yl)-methanone], the IC50 at Fms is ≤ 10 µM.
On the same count and under the same terms, as for `CCOc1c(OC(C)c2ccncc2)cccc1C(=O)c1c[nH]c2ncccc12` (stereo not shown) [P-2135, [2-Ethoxy-3-(1-pyridin-4-yl-ethoxy)-phenyl]-(1H-pyrrolo[2,3-b]pyridin-3-yl)-methanone], the figure is ≤ 10 µM.
`CCOc1c(OCc2c(F)cc(F)cc2F)cccc1C(=O)c1c[nH]c2ncccc12` [P-2137, [2-Ethoxy-3-(2,4,6-trifluoro-benzyloxy)-phenyl]-(1H-pyrrolo[2,3-b]pyridin-3-yl)-methanone]: the concentration for half-maximal inhibition (IC50) on Fms and at Kit was ≤ 10 µM in each case.
For `CCOc1c(OC(C)c2ccc(Cl)cc2Cl)cccc1C(=O)c1c[nH]c2ncccc12` (stereo not shown) [P-2138, {3-[1-(2,4-Dichloro-phenyl)-ethoxy]-2-ethoxy-phenyl}-(1H-pyrrolo[2,3-b]pyridin-3-yl)-methanone], the IC50 on Fms is ≤ 10 µM.
For `O=C(c1cccc(OCc2ccc(Cl)cc2F)c1OCC(F)(F)F)c1c[nH]c2ncccc12` [P-2139, [3-(4-Chloro-2-fluoro-benzyloxy)-2-(2,2,2-trifluoro-ethoxy)-phenyl]-(1H-pyrrolo[2,3-b]pyridin-3-yl)-methanone], the IC50 at Fms and on Kit was ≤ 10 µM in each case.
Regarding `O=C(c1cccc(OCc2c(F)cc(F)cc2F)c1OCC1CC1)c1c[nH]c2ncc(Cl)cc12` [P-2141, (5-Chloro-1H-pyrrolo[2,3-b]pyridin-3-yl)-[2-cyclopropylmethoxy-3-(2,4,6-trifluoro-benzyloxy)-phenyl]-methanone], at Fms, the IC50 is ≤ 10 µM.
As for `Fc1ccc(OCC(F)(F)F)c(Cl)c1Cc1c[nH]c2ncccc12` [P-2148, 3-[2-Chloro-6-fluoro-3-(2,2,2-trifluoro-ethoxy)-benzyl]-1H-pyrrolo[2,3-b]pyridine], the IC50 at Fms and at Kit was ≤ 10 µM throughout.
For `COc1cc(Cc2c[nH]c3ncc(C#N)cc23)c(F)cc1OCc1nc2ccccc2[nH]1` [P-2171, 3-[4-(1H-Benzoimidazol-2-ylmethoxy)-2-fluoro-5-methoxy-benzyl]-1H-pyrrolo[2,3-b]pyridine-5-carbonitrile], the IC50 on Fms, at TrkA and at HGK was ≤ 10 µM throughout.
With `COc1cc(Cc2c[nH]c3ncc(Cl)cc23)c(F)cc1OCc1nc2cc(F)ccc2[nH]1` [P-2179, 2-[4-(5-Chloro-1H-pyrrolo[2,3-b]pyridin-3-ylmethyl)-5-fluoro-2-methoxy-phenoxymethyl]-5-fluoro-1H-benzoimidazole], the IC50 on Fms and on TrkA was ≤ 10 µM in each case.
Take `COc1cc(Cc2c[nH]c3ncc(C)cc23)c(F)cc1OCc1nc2cc(Cl)ccc2[nH]1` [P-2184, 5-Chloro-2-[5-fluoro-2-methoxy-4-(5-methyl-1H-pyrrolo[2,3-b]pyridin-3-ylmethyl)-phenoxymethyl]-1H-benzoimidazole]: the 50% inhibitory concentration (IC50) at Fms, at Kit and on HGK was ≤ 10 µM throughout.

The record behind these values is US7872018B2, “Compounds and methods for kinase modulation, and indications therefor” (Plexxikon, Inc., priority 2006, dated 2011).
